Where two headings read alike, the source gives them in different places.
Experiments:
Format in all cases: cell-based
[1] = system: E. coli; assay: Antibiotic resistance of the HMO reference collection of E. coli (Lookup Table); settings: Reference set isolates (1227, 2010-2013)
Protocol: Both septatypes/clonotypes and antimicrobial profiles were identified.
In total, 1227 E. coli isolated from the HMO (Group Health) clinical lab in 2010-2013 were analyzed. All had their clonotype type determined and resistance to antibiotics tested. Septatypes were deduced from CH types (clonotypes). Red indicates resistance >30%. Yellow: more than 15% but less than 30%. Green: less than 15%.

[2] = system: E. coli; assay: Antibiotic resistance of E. coli isolates from the field trial (Group Health Urgent Care); settings: for overall resistance level: Field trial isolates; for Resistance rate in GH UC E. coli: field trial, Group Health Urgent Care
Protocol: The disclosed test kit and process was conducted on urinalysis-positive urine samples on-site at the HMO urgent care clinical laboratory. All urine samples obtained at Urgent Care facility were tested by the 7-SNP-based CLT(clonotyping) test and by a standard E. coli culturing test.
In total, 750 urinalysis-positive samples from the HMO urgent care lab were processed in CLT test and standard culturing test.
The E. coli clonotypes identified in the field study (out of 750 samples, see above) were compared to a reference collection of E. coli to (1) compare the clonotypes distribution, (2) compare the overall resistance profile, and (3) use the reference collection to predict if antibiotics can or cannot be allowed for use in each case in the field study (as a Lookup Table). Further, the prediction from (3) was compared to actual resistance of individual isolates and to clinical data regarding the prescription of antibiotics in each case. From this we can see if the implementation of the CLT test would improve the choice of antibacterial therapy.
For clone-based prediction of bacterial resistance of field study isolates we used a 15% resistance as a cutoff for rejection of an antibiotic.

[3] = system: Escherichia coli; assay: Disk diffusion susceptibility of the reference set of clinical E. coli isolates split by 7-SNP typing; settings: for prevalence of resistance: total E. coli study population
Protocol: This example illustrates setting up a reference database consisting of 2,559 random single-patient clinical E. coli isolates of primarily extra-intestinal origin, at eight international clinical microbiology laboratories. […] Conventional MLST (multi-locus sequence typing) was performed either in full using the standard scheme of 7 MLST loci (adk, fumC, gyrB, icd, mdh, purA, and recA) (Wirth et al., 2006. Sex and virulence in Escherichia coli: an evolutionary perspective. Mol, Microbiol, 60:1136-1151.) or as a combination of partial MLST and fumC/fimH typing, as described previously (Tchesnokova et al. 2013. Predictive diagnostics for Escherichia coli infections based on the clonal association of antimicrobial resistance and clinical outcome. J. Clin. Microbiol. 51:2991-2999). Some ST complexes, as identified by the eBURST v3 software, were defined operationally as a single ‘ST’ and were designated based on the ST identified as the cluster's founder (see Table 5) (Feil et al. 2004. eBURST: inferring patterns of evolutionary descent among clusters of related bacterial genotypes from multilocus sequence typing data. J. Bacteriol. 186:1518-1530).
Susceptibility to seven antibiotics was determined using a standardized disk diffusion method according to Clinical and Laboratory Standards Institute guidelines.

[4] = system: E. coli
Protocol: This example illustrates implementation of clonal testing in a healthcare community microbiology laboratory. We assessed the presence of E. coli sub-strains ST131 and ST69 (n=619) E. coli positive cultures. […] The tests were conducted to identify ST69 of ST131 genes specific to each clonotype on bacterial DNA isolated from patient urine specimens using RT-PCR instrumentation.

[5] = system: E. coli; assay: CH clonotypes correlated with antibiotic susceptibility profiles of urine E. coli isolates
Source text: This example illustrates a high-resolution fumC/fimH (CH) clonotyping scheme for E. coli based on sequence variations within these highly-variable omnipresent genes for fumarase and fimbrial adhesin of E. coli, respectively. We correlated CH clonotypes with antibiotic susceptibility profiles among 1,600 urine E. coli isolates from clinical microbiology laboratories in Seattle (Group Health, UW, Harborview, and Children's Hospitals), Minneapolis (VA Medical Center), and Munster, Germany (University Clinic).
We next determined how knowledge of cumulative clonotype vs. overall (species) antibiogram could reduce potential ‘drug-bug’ mismatches during empirical antibiotic selection. We used the IDSA-recommended 80% susceptibility cutoff level to allow the use of specific antibiotic for each clonotype.

CC1(C)S[C@@H]2[C@H](NC(=O)[C@H](N)c3ccccc3)C(=O)N2[C@H]1C(=O)O [Ampicillin, ampicillin]
overall resistance level [1]: 44.7
overall resistance level [2]: 55.6

amoxicillin/clavulanate
prevalence of resistance [3]: 28%
overall resistance level [1]: 15.4
overall resistance level [2]: 21.2
Resistance rate in GH UC E. coli [2]: 25.6%

trimethoprim/sulfamethoxazole
resistance in words ([3]; septatype 261 (ST69)): highly susceptible
resistance in words ([3]; septatype 560 (ST131-H41)): highly resistant
resistance in words ([3]; septatype 561 (ST131-H30)): highly resistant
prevalence of resistance [3]: 28%
resistant ([4]; clonotype ST69): greater than 40%
resistant ([4]; clonotype ST131): greater than 40%
Resistance ([4]; study group, n=619 E. coli positive cultures): 15%
overall resistance level [1]: 21.4
overall resistance level [2]: 25.8
Resistance rate in GH UC E. coli [2]: 25.7%

Cc1nnc(SCC2=C(C(=O)O)N3C(=O)[C@@H](NC(=O)Cn4cnnn4)[C@H]3SC2)s1 [cefazolin]
Total resistant ([5]; 1,600 urine E. coli isolates): 19.7%
% Resistant among Allowed ([5]; isolates of clonotypes allowed for treatment): 10.7%
% Resistant among Rejected ([5]; isolates of clonotypes rejected for treatment): 32.0%
prevalence of resistance [3]: 23%
overall resistance level [1]: 15.5
overall resistance level [2]: 12.2

CO/N=C(\C(=O)N[C@@H]1C(=O)N2C(C(=O)O)=C(CSc3nc(=O)c(=O)[nH]n3C)CS[C@H]12)c1csc(N)n1 [ceftriaxone]
prevalence of resistance [3]: 9%
overall resistance level [1]: 3.7
overall resistance level [2]: 4.8

O=C1CN(/N=C/c2ccc([N+](=O)[O-])o2)C(=O)N1 [nitrofurantoin]
prevalence of resistance [3]: 11%
overall resistance level [1]: 1.3
overall resistance level [2]: 2.9
Resistance rate in GH UC E. coli [2]: 2.9%

Source: patent US20160251702A1, “Process and Kit for Predicting Antibiotic Resistance and Susceptibility of Bacteria” (priority 2015, published 2016)
